What all share (type): cell-based, human
One assay concerns HME cells. The experiment in a line: TUNEL detection (FragEL DNA fragmentation kit). Here is the method: (§1) HME and induced IRIS3 (72 h) cells were exposed to 40 mJ/cm^2 UVC, 10 μM of etoposide or 15 μM of H2O2 in the presence or absence of 10 μM of SB203580, p53 siRNA or 10 μM of CCT007093.
(§2) The Flurescein FragEL DNA Fragmentation Detection Kit was used according to the supplier (Calbiochem) protocol.

A further assay deals with induced IRIS3 cells. As to the kind of experiment: TUNEL detection (FragEL DNA fragmentation kit). The procedure:
as §1, §2

Another assay has as its system SKBR3 cells. As to the kind of experiment: LIVE/DEAD cell death assay. The conditions noted are these: for level of cell death: SKBR3, all conditions, 10 μM etoposide or 15 μM H2O2. Here is the method:
(§3) MCF7 and SKBR3 cell lines transfected with luciferase or BRCA1-IRIS siRNAs in the presence or absence of p38MAPK inhibitor (SB203580) or p53 siRNA were exposed to 40 mJ/cm^2 UVC, 10 μM etoposide or 15 μM H2O2. […] This was confirmed by phase-contrast cell counting (FIG. 9I) and trypan blue exclusion using ViCell (Beckman Coulter, Fullerton, Calif., USA, FIG. 9J).
(§4) The LIVE/DEAD Fixable Dead Cell Stain Kit was used according to the supplier (Invitrogen) protocol.

A further assay deals with MCF7 cells. As to the kind of experiment: LIVE/DEAD cell death assay. The conditions noted are these: for level of cell death: MCF7, all conditions, 10 μM etoposide or 15 μM H2O2. The procedure:
as §3, §4

For assay [1], the system named is p38MAPK phosphorylation in HME cells. As to the kind of experiment: Immunoblot of p38MAPK phosphorylation. The conditions noted are these: 10 μM CCT007093. Here is the method: (§5) CCT007093 is a novel WIP1 specific inhibitor. The HME and induced IRIS3 (72 h) cells were untreated or exposed to 20 mJ/cm^2 UVC, 10 μM of CCT007093 or both. BRCA1-IRIS, p53 and WIP1 level was low in HME and high in IRIS3 cells, whereas p38MAPK was high in both the cell lines. These levels were not changed in both cell lines following any of the treatments (FIG. 9H). p-p53 level was low in untreated HME and IRIS3 cells (FIG. 9H, lanes 1 and 5), rose after UVC treatment, decreased after CCT007093 treatment and increased in UVC+CCT007093-treated HME cells (FIG. 9H) Importantly, in induced IRIS3 cells, p-p53 level decreased after UVC treatment, increased after CCT007093 treatment and remained high after the combined treatment (FIG. 9H).
(§6) BT474, MCF7 and SKBR3 cells were maintained in Roswell Park Memorial Institute medium (Invitrogen) supplemented with 10% fetal bovine serum and antibiotics. SOAS2 and HEK293T cells were maintained Dulbecco's Modified Eagle medium (Invitrogen) with 10% serum. HME maintenance was as described in ElShamy and Livingston, 2004. Cancer or HME cells were at 80% confluence in 10 cm^2 dishes and were treated with UVC (different doses), SB203580 (10 μM, Sigma, St. Louis, Mo., USA), etoposide (10 μM, Sigma) and H2O2 (15 μM, Sigma) or CCT007093 (10 μM, Santa Cruz, Santa Cruz, Calif., USA), and these drugs were added directly to the cells.

Assay [2] has as its system p38MAPK phosphorylation in induced IRIS3 cells. As to the kind of experiment: Immunoblot of p38MAPK phosphorylation (p-p38MAPK/p38MAPK, ImageJ). The procedure:
(§7) IRIS 1 and IRIS3 induced for 72 h were exposed to 0, 10, 20 or 40 mJ/cm^2 of UVC irradiation. After 24 h, compared with IRIS1, induced IRIS3 cells treated with 0 mJ/cm^2 UVC had higher levels of BRCA1-IRIS, p53, WIP1, p-p38MAPK, yet similar levels of p38MAPK and p-p53 (FIG. 9F). In 10 and 20 mJ/cm^2 treated cells, BRCA1-IRIS, p53 and WIP1 levels remained higher in induced IRIS3 and no change in p38MAPK level (FIG. 9F). […] Finally, in 40 mJ/cm^2 UVC-treated cells, BRCA1-IRIS, p53 and WIP1 levels were still detectable in induced IRIS3 but not in IRIS1 cells (FIG. 9F). In contrast, IRIS1 and not induced IRIS3 cells contained detectable levels of p-p53 and p-p38MAPK (FIG. 9F). The intensity of the p53, p-p53, p38MAPK and p-p38MAPK bands in FIG. 9F were measured using ImageJ program (NIH) to estimate the level of p53 and p38MAPK activation in BRCA1-IRIS overexpressing cells. About 50% of p53 in IRIS1 cells was phosphorylated before UVC exposure that rose to 80-100% after the exposure (FIG. 9G). In contrast, only 20% of p53 was phosphorylated in induced IRIS3 cells before UVC dropping to <10% after UVC (FIG. 9G). p38MAPK phosphorylation was undetectable in IRIS1 cells before UVC exposure but rose to ˜100% after UVC (FIG. 9G). In induced IRIS3 cells, the 100% of p38MAPK phosphorylated before UVC exposure dropped to <20% after UVC exposure (FIG. 9G). […]
For orientation: A western blot detects proteins with antibodies after separation by electrophoresis.

The test system of assay [3] is p53 phosphorylation in HME cells. As to the kind of experiment: Immunoblot of p53 phosphorylation. To be noted: 10 μM CCT007093 alone. The procedure:
as §5, §6

Assay [4] relates to p53 phosphorylation in induced IRIS3 cells. As to the kind of experiment: Immunoblot of p53 phosphorylation (p-p53/p53, ImageJ). Here is the method: as §7
The subject of assay [5] is p53 and p38MAPK phosphorylation in induced IRIS2 cells. The experiment in a line: Immunoblot of p-p53 and p-p38MAPK after etoposide. Here is the method:
(§8) Induced IRIS2 on the other hand maintained high level of BRCA1-IRIS, p53 and WIP1 even in the presence of 50 μM of etoposide and had similar level of total p38MAPK (FIG. 8I). Etoposide treatment triggered p53 phosphorylation in IRIS1 but not in the induced IRIS2 cells (Supplementary FIG. 8I).

The test system of assay [6] is p53 and p38MAPK phosphorylation in IRIS1 cells. As to the kind of experiment: Immunoblot of p-p53 and p-p38MAPK after etoposide. The procedure:
as §8

The mark [7] stands for this setting: HME, 10 μM etoposide or 15 μM H2O2.
Setting [8] is: induced IRIS3, 10 μM etoposide or 15 μM H2O2.
Where [9] appears, read: induced IRIS3, 20 mJ/cm^2 UVC in presence of 10 μM CCT007093.

The structures appear in SMILES notation.

For the compound `OO` [H2O2], the “number of TUNEL+ cells” value in the assay on HME cells (setting [7]) is “markedly increased”; with induced IRIS3 cells (setting [8]) it was “only modestly increasing”. For the same compound, the “level of cell death” value in the assay on SKBR3 cells and in the assay with MCF7 cells was “increased” each time.

For the compound `C[S+]([O-])c1ccc(-c2nc(-c3ccncc3)c(-c3ccc(F)cc3)[nH]2)cc1` (centres unmarked) [SB203580], the “number of TUNEL+ cells” value with HME cells (HME under UVC, etoposide or H2O2, plus 10 μM SB203580 or p53 siRNA) is “significantly reduced”; with induced IRIS3 cells (induced IRIS3 under UVC, etoposide or H2O2, plus 10 μM SB203580 or p53 siRNA) it was “stayed the same”. In addition, the “dead cells induced by BRCA1-IRIS silencing” value is “significantly reduced” in the assay with SKBR3 cells (SKBR3, BRCA1-IRIS silenced plus SB203580 or p53 siRNA) and “significantly reduced” with MCF7 cells (MCF7, BRCA1-IRIS silenced plus SB203580 or p53 siRNA).

With `O=C1/C(=C/c2cccs2)CC/C1=C\c1cccs1` [CCT007093], the “number of TUNEL+ cells” value in the assay on HME cells (HME under UVC, etoposide or H2O2, 10 μM CCT007093 vs vehicle) is reported as “not”; in the assay on HME cells (HME, 10 μM CCT007093, no stress treatment) it was “increased slightly yet significantly”; with induced IRIS3 cells (induced IRIS3, 10 μM CCT007093, no stress treatment), “not”; in the assay on induced IRIS3 cells (induced IRIS3 under UVC, etoposide or H2O2, 10 μM CCT007093 vs vehicle), “significantly increased”. Moreover, the p-p38MAPK level entry in [1] is given as “increased”; in [2] (induced IRIS3, 10 μM CCT007093 alone or with UVC), “remained high”. The “p38MAPK phosphorylated (p-p38MAPK/p38MAPK ratio)” value in assay [2] (setting [9]) is about 55%. Also, the p-p53 level entry in assay [3] was “decreased”; in assay [4] (induced IRIS3, 10 μM CCT007093 alone), “increased”. Also, the “p53 phosphorylated (p-p53/p53 ratio)” value in assay [4] (setting [9]) is recorded as about 75%.

In the case of `COc1cc([C@@H]2c3cc4c(cc3[C@@H](O[C@@H]3O[C@@H]5CO[C@@H](C)O[C@H]5[C@H](O)[C@H]3O)[C@H]3COC(=O)[C@H]23)OCO4)cc(OC)c1O` [etoposide], the “number of TUNEL+ cells” value in the assay on HME cells (setting [7]) is recorded as “markedly increased”; in the assay with induced IRIS3 cells (setting [8]) it was “only modestly increasing”. Also, the p-p38MAPK level result in assay [5] (induced IRIS2, after etoposide treatment) is “sharply dropped”; in assay [6] (IRIS1, after etoposide treatment) it was “increased significantly”. Further, the p53 phosphorylation entry in [5] (induced IRIS2, etoposide 5, 10 or 50 μM, 24 h) was “not”; in assay [6] (IRIS1, etoposide 5, 10 or 50 μM, 24 h) it was “triggered”. The “level of cell death” value in the assay on SKBR3 cells and with MCF7 cells was “increased” each time.
